Measured values: patent publication US12486267B2, “Imidazo[1,2-A]pyridine and [1,2,4]triazolo[1,5-A]pyridine derivatives as TLR9 inhibitors for the treatment of fibrosis” (BRISTOL-MYERS SQUIBB COMPANY, priority 2020, dated 2025)

Key:
Assay type in all cases: cell-based
human TLR8 = target: T1, human TLR8 (Homo sapiens, UniProt Q9NR97); assay: TLR8 inhibition reporter assay (HEK-Blue cells, SEAP reporter); details: HEK-Blue cells overexpressing human TLR8; stimulated with R848 15.9 μM; 22 hour incubation; SEAP readout
T1 sequence (Q9NR97 27-1041): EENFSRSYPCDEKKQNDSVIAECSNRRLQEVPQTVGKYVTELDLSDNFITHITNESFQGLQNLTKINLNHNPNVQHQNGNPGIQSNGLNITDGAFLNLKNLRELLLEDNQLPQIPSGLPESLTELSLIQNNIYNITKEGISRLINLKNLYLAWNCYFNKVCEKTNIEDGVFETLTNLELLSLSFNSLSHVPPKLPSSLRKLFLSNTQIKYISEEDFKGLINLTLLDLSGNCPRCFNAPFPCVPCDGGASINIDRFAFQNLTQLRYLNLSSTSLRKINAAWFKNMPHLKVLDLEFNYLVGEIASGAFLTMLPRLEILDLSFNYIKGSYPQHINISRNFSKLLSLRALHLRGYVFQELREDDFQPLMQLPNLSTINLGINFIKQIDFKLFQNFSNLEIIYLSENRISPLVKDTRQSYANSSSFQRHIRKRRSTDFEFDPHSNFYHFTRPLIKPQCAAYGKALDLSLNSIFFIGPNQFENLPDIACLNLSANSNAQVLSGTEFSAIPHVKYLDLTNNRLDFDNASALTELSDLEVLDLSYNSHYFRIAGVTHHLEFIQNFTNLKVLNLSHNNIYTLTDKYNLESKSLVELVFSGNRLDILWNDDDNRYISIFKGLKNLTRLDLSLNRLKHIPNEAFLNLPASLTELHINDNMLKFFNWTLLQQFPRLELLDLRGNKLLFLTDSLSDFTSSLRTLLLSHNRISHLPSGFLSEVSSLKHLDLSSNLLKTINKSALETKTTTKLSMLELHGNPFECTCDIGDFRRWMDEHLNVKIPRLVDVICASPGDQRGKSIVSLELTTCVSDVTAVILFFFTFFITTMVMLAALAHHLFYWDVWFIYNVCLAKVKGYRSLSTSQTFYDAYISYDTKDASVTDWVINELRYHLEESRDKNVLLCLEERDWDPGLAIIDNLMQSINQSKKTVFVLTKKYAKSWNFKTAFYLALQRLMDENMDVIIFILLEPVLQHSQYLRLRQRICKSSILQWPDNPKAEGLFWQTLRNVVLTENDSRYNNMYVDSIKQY
Procedure, shortened: (§1)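 HEK-Blue cells with NF-κB/AP-1-driven SEAP pre-treated 30 min with compound (0.05 nM–50 μM), then stimulated with gardiquimod 7.5 μM (TLR7), R848 15.9 μM (TLR8) or ODN2006 5 nM (TLR9). SEAP detected after 22 h at 37 °C; percent inhibition relative to agonist-plus-DMSO and known-inhibitor wells.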

human TLR9 = target: T2, human TLR9 (Homo sapiens, UniProt Q9NR96); assay: TLR9 inhibition reporter assay (HEK-Blue cells, SEAP reporter); details: HEK-Blue cells overexpressing human TLR9; stimulated with ODN2006 5 nM; 22 hour incubation; SEAP readout
T2 sequence (Q9NR96 26-1032): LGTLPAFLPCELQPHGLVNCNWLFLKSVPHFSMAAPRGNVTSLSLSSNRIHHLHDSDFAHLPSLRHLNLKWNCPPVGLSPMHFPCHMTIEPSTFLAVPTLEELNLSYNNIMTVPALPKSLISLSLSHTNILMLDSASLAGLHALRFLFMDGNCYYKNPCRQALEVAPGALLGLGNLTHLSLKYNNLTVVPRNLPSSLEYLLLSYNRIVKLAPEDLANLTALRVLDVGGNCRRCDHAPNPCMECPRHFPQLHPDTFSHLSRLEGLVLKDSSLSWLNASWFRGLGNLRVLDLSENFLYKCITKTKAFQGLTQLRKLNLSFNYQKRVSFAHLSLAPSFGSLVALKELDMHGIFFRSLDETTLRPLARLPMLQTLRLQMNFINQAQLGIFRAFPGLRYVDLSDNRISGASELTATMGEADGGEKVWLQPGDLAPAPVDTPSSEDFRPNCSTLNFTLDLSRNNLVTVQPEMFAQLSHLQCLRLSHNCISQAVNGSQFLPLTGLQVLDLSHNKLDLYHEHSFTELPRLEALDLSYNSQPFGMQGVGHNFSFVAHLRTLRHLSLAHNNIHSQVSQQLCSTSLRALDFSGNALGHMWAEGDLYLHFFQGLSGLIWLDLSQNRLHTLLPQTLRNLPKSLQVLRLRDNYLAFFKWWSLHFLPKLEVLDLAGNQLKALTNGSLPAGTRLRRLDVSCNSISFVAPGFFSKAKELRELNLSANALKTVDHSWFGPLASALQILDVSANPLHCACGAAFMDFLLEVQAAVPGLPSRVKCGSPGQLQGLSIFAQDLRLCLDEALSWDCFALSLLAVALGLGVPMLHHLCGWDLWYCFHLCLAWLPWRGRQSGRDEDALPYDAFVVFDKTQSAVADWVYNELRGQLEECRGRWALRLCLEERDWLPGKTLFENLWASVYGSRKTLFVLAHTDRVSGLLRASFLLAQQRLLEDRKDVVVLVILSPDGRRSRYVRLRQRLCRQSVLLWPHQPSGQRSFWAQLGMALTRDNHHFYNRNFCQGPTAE
Procedure, shortened: as §1

human TLR7 = target: T3, human TLR7 (Homo sapiens, UniProt Q9NYK1); assay: TLR7 inhibition reporter assay (HEK-Blue cells, SEAP reporter); details: HEK-Blue cells overexpressing human TLR7; stimulated with gardiquimod 7.5 μM; 22 hour incubation; SEAP readout
T3 sequence (Q9NYK1 27-1049): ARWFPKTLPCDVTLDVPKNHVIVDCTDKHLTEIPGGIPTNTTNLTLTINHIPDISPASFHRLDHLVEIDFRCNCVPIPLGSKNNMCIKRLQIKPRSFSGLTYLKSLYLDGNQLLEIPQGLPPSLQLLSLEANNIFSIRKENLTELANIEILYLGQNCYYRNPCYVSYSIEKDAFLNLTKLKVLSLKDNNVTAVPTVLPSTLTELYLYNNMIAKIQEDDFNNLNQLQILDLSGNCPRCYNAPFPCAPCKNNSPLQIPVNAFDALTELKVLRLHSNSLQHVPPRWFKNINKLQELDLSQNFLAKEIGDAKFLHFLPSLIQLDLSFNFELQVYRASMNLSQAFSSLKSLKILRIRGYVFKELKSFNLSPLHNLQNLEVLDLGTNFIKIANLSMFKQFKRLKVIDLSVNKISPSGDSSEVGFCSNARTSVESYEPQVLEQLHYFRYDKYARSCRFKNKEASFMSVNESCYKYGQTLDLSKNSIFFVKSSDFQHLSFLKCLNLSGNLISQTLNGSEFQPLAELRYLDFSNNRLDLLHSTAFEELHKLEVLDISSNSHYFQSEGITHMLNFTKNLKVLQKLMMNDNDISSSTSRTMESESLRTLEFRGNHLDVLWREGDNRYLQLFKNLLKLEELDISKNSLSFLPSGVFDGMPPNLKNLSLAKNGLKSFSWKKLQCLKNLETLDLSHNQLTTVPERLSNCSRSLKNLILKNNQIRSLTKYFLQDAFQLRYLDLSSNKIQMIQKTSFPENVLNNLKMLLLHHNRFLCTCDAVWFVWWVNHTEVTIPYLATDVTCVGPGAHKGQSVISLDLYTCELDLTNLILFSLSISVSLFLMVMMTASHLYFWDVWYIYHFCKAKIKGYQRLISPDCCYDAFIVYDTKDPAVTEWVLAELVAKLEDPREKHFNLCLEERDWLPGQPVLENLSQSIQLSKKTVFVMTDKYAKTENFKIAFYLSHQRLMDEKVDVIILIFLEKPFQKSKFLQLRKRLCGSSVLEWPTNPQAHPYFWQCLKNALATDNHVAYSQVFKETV
Procedure, shortened: as §1

SMILES | IC50 (human TLR8) | IC50 (human TLR9) | IC50 (human TLR7)
COc1ccc(-c2cn3cc(C4C[C@H]5CC[C@@H](C4)N5C4CCN(CC(C)C)CC4)cc(C)c3n2)cc1OC (mixture of isomers) [Example 27, 2-(3,4-dimethoxyphenyl)-6-(8-(1-isobutylpiperidin-4-yl)-8-azabicyclo[3.2.1]octan-3-yl)-8-methylimidazo[1,2-a]pyridine] | > 50000 nM | 17 nM | 1400 nM
COc1ccc(-c2cn3c(n2)CCC(C2CCN(C4CCN(C(C)C)CC4)CC2)C3)cc1OC (racemic) [Example 34, 2-(3,4-dimethoxyphenyl)-6-(1′-isopropyl-[1,4′-bipiperidin]-4-yl)-5,6,7,8-tetrahydroimidazo[1,2-a]pyridine] | > 50000 nM | 37 nM | 12000 nM
COc1ccc(-c2cn3cc(C4CCN(C5CCN(C6CC6)CC5)CC4)cc(C)c3n2)cc1OC [Example 1, 6-(1′-cyclopropyl-[1,4′-bipiperidin]-4-yl)-2-(3,4-dimethoxyphenyl)-8-methylimidazo [1,2-a]pyridine] | > 50000 nM | 56 nM | 14000 nM
COc1ccc(-c2cn3cc(C4CCN(C5CCN(CC(C)C)CC5)CC4)cc(C)c3n2)cc1OC [Example 3, 2-(3,4-dimethoxyphenyl)-6-(1′-isobutyl-[1,4′-bipiperidin]-4-yl)-8-methylimidazo[1,2-a]pyridine] | > 50000 nM | 32 nM | 1800 nM
COc1ccc(-c2cn3c(n2)CC(C2CCN(C4CCN(CC(C)C)CC4)CC2)CC3)cc1OC (racemic) [Example 59, 2-(3,4-dimethoxyphenyl)-7-(1′-isobutyl-[1,4′-bipiperidin]-4-yl)-5,6,7,8-tetrahydroimidazo[1,2-a]pyridine] | > 50000 nM | 205 nM | 7700 nM
CS(=O)(=O)c1ccc(-c2cn3cc(C4CCN(C5CCN(C6CCC6)CC5)CC4)cc(F)c3n2)cc1 [Example 110, 6-(1′-cyclobutyl-[1,4′-bipiperidin]-4-yl)-8-fluoro-2-(4-(methylsulfonyl)phenyl) imidazo[1,2-a]pyridine] | > 50000 nM | 4.6 nM | 2400 nM
COc1ccc(-c2cn3c(n2)CCC(C2CCN(C4CCN(C(=O)C5CC5)CC4)CC2)C3)cc1OC (racemic) [Example 42, cyclopropyl(4-(2-(3,4-dimethoxyphenyl)-5,6,7,8-tetrahydroimidazo[1,2-a]pyridin-6-yl)-[1,4′-bipiperidin]-1′-yl)methanone] | > 50000 nM | 80 nM | 19000 nM
COc1ccc(-c2cn3cc(-c4ccc(N5CCN(CC6CC6)CC5)cc4)cc(C)c3n2)cc1OC [Example 95, 6-(4-(4-(cyclopropylmethyl)piperazin-1-yl)phenyl)-2-(3,4-dimethoxyphenyl)-8-methylimidazo[1,2-a]pyridine] | > 50000 nM | 531 nM | 1000 nM
CC(C)N1CCC(N2CCC(c3cn4cc(-c5ccc(S(C)(=O)=O)cc5)nc4cc3F)CC2)CC1 [Example 70, 7-fluoro-6-(1′-isopropyl-[1,4′-bipiperidin]-4-yl)-2-(4-(methylsulfonyl)phenyl) imidazo[1,2-a]pyridine] | > 50000 nM | 303 nM | 22900 nM

Second part, the compound after the results:

IC50 (human TLR8) | IC50 (human TLR9) | IC50 (human TLR7) | SMILES
> 50000 nM | 26 nM | 4600 nM | COc1ccc(-c2cn3c(n2)CCC(C2CCN(C4CCN(CC(C)C)CC4)CC2)C3)cc1OC (racemic) [Example 31, 2-(3,4-dimethoxyphenyl)-6-(1′-isobutyl-[1,4′-bipiperidin]-4-yl)-5,6,7,8-tetrahydroimidazo[1,2-a]pyridine]
> 50000 nM | 1.5 nM | 830 nM | COc1ccc(-c2cn3c(n2)CCC(C2CCN(C4CC5(C4)CN(CC(C)C)C5)CC2)C3)cc1OC (single isomer, unassigned) [Example 54, 2-(3,4-dimethoxyphenyl)-6-(1-(2-isobutyl-2-azaspiro[3.3]heptan-6-yl)piperidin-4-yl)-5,6,7,8-tetrahydroimidazo[1,2-a]pyridine]
> 25000 nM | 34 nM | 2900 nM | COc1ccc(-c2cn3c(n2)CC[C@H](C2CCN(C4CC5CCC(C4)N5CC(C)C)CC2)C3)cc1OC (single isomer, unassigned) [Example 75]
> 25000 nM | 42 nM | 3900 nM | COc1ccc(-c2cn3c(n2)CC[C@H](C2CCN(C4CC5CCC(C4)N5C(C)C)CC2)C3)cc1OC (single isomer, unassigned) [Example 135]
14000 nM | 3.9 nM | 700 nM | CS(=O)(=O)c1ccc(-c2cn3cc(C4CCN(C5CC6CCC(C5)N6CC5CC5)CC4)cc(F)c3n2)cc1 (single isomer, unassigned) [Example 116, 6-(1-(8-(cyclopropylmethyl)-8-azabicyclo[3.2.1]octan-3-yl)piperidin-4-yl)-8-fluoro-2-(4-(methylsulfonyl)phenyl)imidazo[1,2-a]pyridine]
